This is an account of results in patent publication US20210330611A1, “THERAPY FOR NEUROLOGICAL DISEASES/DISORDERS” (priority 2020, published 2021).

Structures can show the parent of a compound that is named as a salt.

Series [1] has as its system fibrin-induced microglia activation. In words: Image-based assay of fibrin-induced microglia activation (HTS and dose response). It counts as cell-based, rat. Particulars: Rattus norvegicus, Microglia, primary microglia HTS, fibrin stimulation, compounds at 10 μM; read-out: Fibrin % inhibition.
Series [2] relates to LPS-induced microglia activation. Kind of series: Image-based assay of LPS-induced microglia activation (HTS and dose response). It counts as cell-based, rat. Particulars: Rattus norvegicus, Microglia, primary microglia HTS, LPS stimulation, compounds at 10 μM; read-out: LPS % inhibition.
Series [3] relates to fibrin- and LPS-induced microglia activation. Kind of series: cells. Conditions: classification by fibrin and LPS inhibition, HTS at 10 μM. Type of series: cell-based, rat.
In series [4] the test system is primary rat microglia. Particulars: rat.
Series [5] has as its system primary rat microglia. Kind of series: Cell toxicity (dead cells, size <150 μm2) in coated fibrin (cFib) assay.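 Further: share of dead cells sized under 150 µm2 at 10 µM in fibrin-stimulated microglia HTS.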 Particulars: primary microglia HTS, fibrin assay, dead cells (size <150 μm2), compounds at 10 μM.

For the molecule `C[C@]12CC[C@@H]3c4ccc(O)cc4CC[C@H]3[C@@H]1CC[C@@H]2OC(=O)CCC1CCCC1` [Estradiol Cypionate], the values for the inhibition at 10 µM in series [1] and in series [2] were -25% and 8%, respectively. For the same molecule, the “Quadrant (FIG. 5b)” value in series [3] was “Q4”. Moreover, the “LPS % cell toxicity” value with primary rat microglia [4] was determined as 0%. Further, the “Fibrin % cell toxicity” value in the series on primary rat microglia [5] came out at 0%.
As for `CCC(=O)Oc1ccc2c(c1)CC[C@@H]1[C@@H]2CC[C@]2(C)[C@@H](OC(=O)CC)CC[C@@H]12` [Estradiol Dipropionate], the inhibition at 10 µM in series [1] is 0%; in series [2] it was 17%. The “Quadrant (FIG. 5b)” value in series [3] is recorded as “Q4”. The “LPS % cell toxicity” value with primary rat microglia [4] was determined as 1%. Moreover, the “Fibrin % cell toxicity” value with primary rat microglia [5] came out at 1%.
On to `CCCCC(=O)O[C@H]1CC[C@H]2[C@@H]3CCc4cc(O)ccc4[C@H]3CC[C@]12C` [Estradiol Valerate], for which the inhibition at 10 µM in series [1] is -8%; in series [2], 16%. In addition, the “Quadrant (FIG. 5b)” value in series [3] was “Q4”. For the same molecule, the “LPS % cell toxicity” value in the series on primary rat microglia [4] is reported as 1%. In addition, the “Fibrin % cell toxicity” value in the series with primary rat microglia [5] stood at 1%.
For `C[C@]12CC[C@@H]3c4ccc(OC(=O)N(CCCl)CCCl)cc4CC[C@H]3[C@@H]1CC[C@@H]2O` [Estramustine], the inhibition at 10 µM in series [1] is 8%; in series [2] it was 16%. Further, in series [3], the “Quadrant (FIG. 5b)” value is on record as “Q4”. Besides, the “LPS % cell toxicity” value in the series on primary rat microglia [4] amounted to 1%. For the same molecule, the “Fibrin % cell toxicity” value with primary rat microglia [5] was 1%.
Turning to `C[C@]12CC[C@@H]3c4ccc(OS(=O)(=O)O)cc4CC[C@H]3[C@@H]1CCC2=O` [Estropipate], the inhibition at 10 µM in series [1] and in series [2] was 10% in each case. The “Quadrant (FIG. 5b)” value in series [3] is reported as “Q4”. In addition, the “LPS % cell toxicity” value with primary rat microglia [4] amounted to 0%. The “Fibrin % cell toxicity” value with primary rat microglia [5] came to 1%.
As for `CN1CCN(C(=O)O[C@H]2c3nccnc3C(=O)N2c2ccc(Cl)cn2)CC1` [Eszopiclone], the values for the inhibition at 10 µM in series [1] and in series [2] were 1% and 17%, respectively. In series [3], the “Quadrant (FIG. 5b)” value was “Q4”. In the series with primary rat microglia [4], the “LPS % cell toxicity” value is 0%. Moreover, in the series with primary rat microglia [5], the “Fibrin % cell toxicity” value was determined as 0%.
For `CCN(CC)C(=O)c1ccc(O)c(OC)c1` [Etamivan], the inhibition at 10 µM in series [1] is -16%; in series [2], 16%. Besides, the “Quadrant (FIG. 5b)” value in series [3] is “Q4”. The “LPS % cell toxicity” value in the series with primary rat microglia [4] amounted to 0%. Further, the “Fibrin % cell toxicity” value in the series on primary rat microglia [5] was determined as 1%.
The matching figures for `CCOc1ccc2nc3cc(N)ccc3c(N)c2c1` [Ethacridine Lactate]: -64%, -8%, “Q4”, 0% and 1%.
Turning to `CCOc1ccc(Cc2nccc3cc(OCC)c(OCC)cc23)cc1OCC` [Ethaverine Hydrochloride], the figures for the inhibition at 10 µM in series [1] and in series [2] were 41% and 24%, respectively. Further, in series [3], the “Quadrant (FIG. 5b)” value is given as “Q4”. The “LPS % cell toxicity” value in the series with primary rat microglia [4] was 1%. Also, the “Fibrin % cell toxicity” value in the series with primary rat microglia [5] worked out at 1%.
On to `CCOc1ccccc1C(N)=O` [Ethenzamide], for which the inhibition at 10 µM in series [1] is -15%; in series [2] it was 5%. Further, in series [3], the “Quadrant (FIG. 5b)” value is listed as “Q4”. In addition, the “LPS % cell toxicity” value in the series with primary rat microglia [4] is reported as 0%. Further, the “Fibrin % cell toxicity” value in the series on primary rat microglia [5] worked out at 1%.
As to `CCN(CC)C(C)CN1c2ccccc2Sc2ccccc21` (stereo not drawn) [Ethopropazine], the inhibition at 10 µM turned out to be 31% in series [1] and 30% in series [2]. Further, in series [3], the “Quadrant (FIG. 5b)” value is on record as “Q4”. The “LPS % cell toxicity” value in the series on primary rat microglia [4] came to 0%. Besides, the “Fibrin % cell toxicity” value with primary rat microglia [5] is given as 1%.
Turning to `CCC1(C)CC(=O)NC1=O` (stereo not drawn) [Ethosuximide], the inhibition at 10 µM in series [1] is -9%; in series [2] it was 19%. The “Quadrant (FIG. 5b)” value in series [3] is “Q4”. Moreover, the “LPS % cell toxicity” value with primary rat microglia [4] turned out to be 0%. In addition, in the series on primary rat microglia [5], the “Fibrin % cell toxicity” value was determined as 0%.
As to `CCOc1ccc2nc(S(N)(=O)=O)sc2c1` [Ethoxzolamide], the inhibition at 10 µM came to 29% in series [1] and 16% in series [2]. Further, the “Quadrant (FIG. 5b)” value in series [3] is on record as “Q4”. For the same molecule, the “LPS % cell toxicity” value in the series on primary rat microglia [4] is recorded as 1%. In addition, in the series on primary rat microglia [5], the “Fibrin % cell toxicity” value is 1%.
For `CCOc1cc(C=O)ccc1O` [Ethyl Vanillin], the values for the inhibition at 10 µM in series [1] and in series [2] were -15% and 18%, respectively. Moreover, in series [3], the “Quadrant (FIG. 5b)” value is on record as “Q4”. The “LPS % cell toxicity” value in the series on primary rat microglia [4] came out at 0%. The “Fibrin % cell toxicity” value with primary rat microglia [5] is reported as 0%.
Turning to `CCOC(N)=O` [Ethyl carbamate], the values for the inhibition at 10 µM in series [1] and in series [2] were 44% and 27%, respectively. Moreover, in series [3], the “Quadrant (FIG. 5b)” value is on record as “Q4”. Further, the “LPS % cell toxicity” value in the series on primary rat microglia [4] turned out to be 0%. Further, the “Fibrin % cell toxicity” value in the series with primary rat microglia [5] is on record as 1%.
